Results: PubChem BioAssay AID2060621 (Molecular Pharmacology Branch, DTP, NCI, 2025)

System: 324938-238-R-J1-PDC complex spheroids viability
Assay: Anticancer human tumor 324938-238-R-J1-PDC patient-derived bladder carcinoma cell line growth inhibition [CLK]
Settings: for IC50: curve of first compound; for viability, T/C: stronger effect = lower value; active = viability on the fitted dose curve at most 10% of control; inactive = the rest
How it was run: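 Multi-cell-type spheroids combined patient-derived tumor cells with HUVEC endothelial cells and human mesenchymal stem cells. Paired agents were dosed in half-log steps down from about clinical Cmax, or from 10 microM where Cmax was unknown.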
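Note: viability read after seven days of drug exposure.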
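Throughout, for viability, T/C: 100% = DMSO vehicle control wells.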

C=CC(=O)Nc1cc(Nc2nccc(-c3cn(C)c4ccccc34)n2)c(OC)cc1N(C)CCN(C)C + CNC(=O)c1ccc(Nc2nc(OC3CCCC3)c3c(-c4ccc5nc(C)oc5c4)c[nH]c3n2)c(OC)c1
39.6 nM: IC50 (second compound 0.0316 µM)
< 0.949 nM: IC50 (second compound 0.1 µM) | IC50 (second compound 0.316 µM) | IC50 (second compound 1 µM) | IC50 (second compound 3.16 µM) | IC50 (second compound 10 µM)
inactive: viability, T/C (second compound 0.0316 µM, first compound 0.000949 µM) 92.5% | viability, T/C (second compound 0.0316 µM, first compound 0.003 µM) 87.2% | viability, T/C (second compound 0.0316 µM, first compound 0.00949 µM) 74.5% | viability, T/C (second compound 0.0316 µM, first compound 0.03 µM) 52.8% | viability, T/C (second compound 0.0316 µM, first compound 0.0949 µM) 38.6% | viability, T/C (second compound 0.0316 µM, first compound 0.3 µM) 27.7% | viability, T/C (second compound 0.1 µM, first compound 0.000949 µM) 30.5% | viability, T/C (second compound 0.1 µM, first compound 0.003 µM) 24.8% | viability, T/C (second compound 0.1 µM, first compound 0.00949 µM) 21.4% | viability, T/C (second compound 0.1 µM, first compound 0.03 µM) 20.3% | viability, T/C (second compound 0.1 µM, first compound 0.0949 µM) 15.6% | viability, T/C (second compound 0.1 µM, first compound 0.3 µM) 14.1% | viability, T/C (second compound 0.316 µM, first compound 0.000949 µM) 19% | viability, T/C (second compound 0.316 µM, first compound 0.003 µM) 16.8% | viability, T/C (second compound 0.316 µM, first compound 0.00949 µM) 19.2% | viability, T/C (second compound 0.316 µM, first compound 0.03 µM) 16.2% | viability, T/C (second compound 0.316 µM, first compound 0.0949 µM) 13.4% | viability, T/C (second compound 0.316 µM, first compound 0.3 µM) 12.9% | viability, T/C (second compound 1 µM, first compound 0.000949 µM) 16.8% | viability, T/C (second compound 1 µM, first compound 0.003 µM) 15.5% | viability, T/C (second compound 1 µM, first compound 0.00949 µM) 16.8% | viability, T/C (second compound 1 µM, first compound 0.03 µM) 11.8% | viability, T/C (second compound 1 µM, first compound 0.0949 µM) 11.1% | viability, T/C (second compound 1 µM, first compound 0.3 µM) 11.5% | viability, T/C (second compound 3.16 µM, first compound 0.000949 µM) 16.8% | viability, T/C (second compound 3.16 µM, first compound 0.003 µM) 17.6% | viability, T/C (second compound 3.16 µM, first compound 0.00949 µM) 13.1% | viability, T/C (second compound 3.16 µM, first compound 0.03 µM) 14.3% | viability, T/C (second compound 3.16 µM, first compound 0.0949 µM) 11.9% | viability, T/C (second compound 3.16 µM, first compound 0.3 µM) 11.8% | viability, T/C (second compound 10 µM, first compound 0.000949 µM) 18.1% | viability, T/C (second compound 10 µM, first compound 0.003 µM) 17.9% | viability, T/C (second compound 10 µM, first compound 0.00949 µM) 14.8% | viability, T/C (second compound 10 µM, first compound 0.03 µM) 13.2% | viability, T/C (second compound 10 µM, first compound 0.0949 µM) 12.4% | viability, T/C (second compound 10 µM, first compound 0.3 µM) 11.5%
